Source: patent publication US20150284364A1, “SUBSTITUTED INDOLE DERIVATIVES” (priority 2012, published 2015)
Converted amounts (≈) assume the structure as drawn. One block for each compound: values may come before it.

Columns and labels:
[1] = tested on: Bone marrow cells from CBA mice; assay: Bone marrow cell proliferation (BM) assay; assay type: cell-based; conditions: Mus musculus, 3H-thymidine incorporation, four days incubation
Protocol: Bone marrow cells from CBA mice (2.5×10^4 cells per well in flat bottom tissue culture microtiter plates) were incubated in 100 μL RPMI medium containing 10% FCS, 100 U/mL penicillin, 100 μg/mL streptomycin (Gibco BRL, Basel Switzerland), 50 μM 2-mercaptoethanol (Fluka, Buchs, Switzerland), WEHI-3 conditioned medium (7.5% v/v) and L929 conditioned medium (3% v/v) as a source of growth factors and serially diluted compounds. Seven three-fold dilution steps in duplicates per test compounds were performed. After four days of incubation 1 μCi ^3H-thymidine was added. Cells were harvested after an additional five-hour incubation period, and incorporated ^3H-thymidine was determined according to standard procedures. Conditioned media were prepared as follows. WEHI-3 cells (ATCC TIB68) and L929 cells (ATCC CCL 1) were grown in RPMI medium until confluence for 4 days and one week, respectively. Cells were harvested, resuspended in the same culture flasks in medium C containing 1% FCS (Schreier and Tess 1981) for WEHI-3 cells and RPMI medium for L929 cells and incubated for 2 days (WEHI-3) or one week (L929). The supernatant was collected, filtered through 0.2 μm and stored in aliquots at −80° C. Cultures without test compounds and without WEHI-3 and L929 supernatants were used as low control values. Low control values were subtracted from all values. […]

[2] = Blood levels and pharmacokinetics after oral administration of compound of example No. 1; assay type: in vivo, Beagle dogs; conditions: example 3 main component in blood after around an hour
Protocol: A single dose of the compound of example 1 (3.0 mg/kg) was administered p.o. to 3 male Beagle dogs. Compound 1 was dosed as an aqueous suspension of the crystalline monohydrate form in Methylcellulose (0.5%): Tween 80 (1%) (90:10). Blood was taken in regular intervals by venipuncture, and the samples were analyzed for a period of up to 24 hours. The compounds of the examples 1, 2, and 3 were quantitatively assessed over time, and the results are tabulated below:
Key pharmacokinetic parameters (mean values±standard deviations (n=3) for 1, 2 and 3 after oral dosing of example No. 1.

[3] = Solubility in simulated gastric and intestinal fluids; assay type: physicochemical; conditions: for Final pH: solubility test
From the text: Solubility of compound Example No. 1 in simulated gastric and in simulated intestinal fluids at room temperature
Solubility of compound Example No. 3 (free form/acetate salt form) in simulated gastric fluids: […]

[4] = Chemical stability of amorphous and crystalline example No. 1 (solid state); assay type: physicochemical; conditions: for Purity: 1 week; for Initial Purity: before exposure
[5] = Chemical stability of the trihydrate of example 1; assay type: physicochemical
[6] = Physical stability: equilibration of suspension, XRPD of isolated solid; assay type: physicochemical; conditions: based upon the equilibration experiments
Protocol: Samples of example 1 free base which are a mixture of monohydrate and trihydrate were suspended in an organic solvent water mixture of water and equilibrated for about 4 days at 25°. […] After equilibration the suspension was filtered and the solid material isolated and analysed by XRPD.

SMILES: Cc1cccc2c(C3=C(c4nc(N5CCNC6(CC6)C5)cc5ccccc45)C(=O)N(COP(=O)(O)O)C3=O)c[nH]c12 [Example 1, Phosphoric acid mono-[3-[3-(4,7-diaza-spiro[2.5]oct-7-yl)-isoquinolin-1-yl]-4-(7-methyl-1H-indol-3-yl)-2,5-dioxo-2,5-dihydro-pyrrol-1-ylmethyl]ester]
- IC50 [1]: 6740 ± 1120 nM
- conversion of prodrug into parent compound in blood [2]: effective and favorable conversion into a parent compound
- solubility ([3]; Fasted state simulated intestinal fluid (FaSSIF) pH 6.5, room temperature): 100 µg/mL (≈ 174 µM)
- solubility ([3]; Fed state simulated intestinal fluid (FeSSIF) pH 5.8, room temperature): 130 µg/mL (≈ 227 µM)
- solubility ([3]; Simulated gastric fluid (SGF) pH 2, room temperature): 40 µg/mL (≈ 69.7 µM)
- Final pH ([3]; FaSSIF pH 6.5): 6.59
- Final pH ([3]; FeSSIF pH 5.8): 6.05
- Final pH ([3]; SGF pH 2): 2.22
- Purity ([4]; Amorphous, 50 ° C.): 95.8%
- Purity ([4]; Amorphous, 80 ° C.): 89.7%
- Initial Purity ([4]; Amorphous): 98.5%
- Purity ([4]; Crystalline monohydrate, 50 ° C.): 100%
- Purity ([4]; Crystalline monohydrate, 80 ° C.): 100%
- Initial Purity ([4]; Crystalline monohydrate): 100%
- Purity of example 1 in % ([5]; 2 weeks 50° C.): 95.57%
- Sum of related. Substances in area % ([5]; 2 weeks 50° C.): 4.52 area %
- Purity of example 1 in % ([5]; 2 weeks 50° C./75% RH): 96.20%
- Sum of related. Substances in area % ([5]; 2 weeks 50° C./75% RH): 3.66 area %
- Purity of example 1 in % ([5]; initial): 98.06%
- Sum of related. Substances in area % ([5]; initial): 1.64 area %

- Final pH ([3]; Acetate Salt, FaSSIF pH 6.5): 3.97
- Final pH ([3]; Acetate Salt, FeSSIF pH 5.8): 6.5
- Final pH ([3]; Acetate Salt, SGF pH 2): 5.45
- solubility ([3]; fasted state simulated intestinal fluid (FaSSIF), Acetate Salt, FaSSIF pH 6.5): 50 µg/mL
- solubility ([3]; fed state simulated intestinal fluid (FeSSIF), Acetate Salt, FeSSIF pH 5.8): 550 µg/mL
- solubility ([3]; simulated gastric fluid (SGF), simulated gastric fluid, Acetate Salt, SGF pH 2): 150 µg/mL
SMILES: Cc1cccc2c(C3=C(c4nc(N5CCNC6(CC6)C5)cc5ccccc45)C(=O)NC3=O)c[nH]c12 [Example 3, 3-[3-(4,7-diaza-spiro[2.5]oct-7-yl)-isoquinolin-1-yl]-4-(7-methyl-1H-indol-3-yl)-pyrrole-2,5-dione]
- IC50 [1]: 1670 ± 256 nM

SMILES: Cc1cccc2c(C3=C(c4nc(N5CCNC6(CC6)C5)cc5ccccc45)C(=O)N(COP(=O)(O)O)C3=O)c[nH]c12.O.O.O [trihydrate of example 1, phosphoric acid mono-[3-[3-(4,7-diaza-spiro[2.5]oct-7-yl)-isoquinolin-1-yl]-4-(7-methyl-1H-indol-3-yl)-2,5-dioxo-2,5-dihydro-pyrrol-1-ylmethyl]ester, trihydrate]
- relative thermodynamic stability of hydrate forms [6]: thermodynamically more stable than the monohydrate
